The source of these data is ChEMBL document CHEMBL1201862, “PubChem BioAssay data set” (2004).

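Following 48 hours of exposure in 96-well plates, responses at five concentrations were used to interpolate endpoints linearly. GI50 = concentration required for 50% inhibition of growth.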 Activity calls are given as the source filed them. No stated cut-off is given here; in the data, active = GI50 up to about 1.1 µM and inactive = higher.

Among the test systems are SF-295; SK-MEL-2; DU-145; HCC 2998; M14; HCT-116; MOLT-4; UACC-257; OVCAR-3; UACC-62; HOP-62; MDA-MB-435; OVCAR-5; NCI-H23; ACHN; K562; UO-31; MDA-N; HOP-92.
Holding throughout (test): NCI-60 cell line screen, 48 h

Take `O=CNc1ccc2c(c1)C(=O)c1ccccc1-2`: the GI50 with SF-295 was > 100 µM (inactive); in the assay on SK-MEL-2 it was > 100 µM (inactive); in the assay with DU-145, 57.8 µM (inactive); in the assay with HCC 2998 it was > 100 µM (inactive); in the assay on M14 it was > 100 µM (inactive); with HCT-116 it was 37.8 µM (inactive). For the same molecule, the GI50 in the assay on MOLT-4 is 44.7 µM (inactive); with UACC-257, > 100 µM (inactive); in the assay on OVCAR-3, > 100 µM (inactive); in the assay with UACC-62, 49.9 µM (inactive); with HOP-62, 90.2 µM (inactive); in the assay on MDA-MB-435, > 100 µM (inactive). The GI50 was > 100 µM (inactive) in the assay with OVCAR-5; > 100 µM (inactive) in the assay on NCI-H23; > 100 µM (inactive) in the assay with ACHN; 81.3 µM (inactive) in the assay on K562; 47.3 µM (inactive) in the assay on UO-31; > 100 µM (inactive) in the assay with MDA-N. For the same molecule, in the assay with HOP-92, the GI50 is 72.8 µM (inactive).
On to `COC(=O)c1c(OC(C)=O)ccc2c1c1c(OC(C)=O)c3ccccc3c(OC(C)=O)c1n2Cc1cc(OC)cc(OC)c1`, for which the GI50 in the assay on SF-295 is 18.2 µM (inactive); in the assay with SK-MEL-2 it was 3.31 µM (inactive); in the assay with DU-145, 38.5 µM (inactive); in the assay on HCC 2998, 2.56 µM (inactive); in the assay with M14, 5.11 µM (inactive); in the assay with HCT-116, 7.82 µM (inactive). Further, the GI50 was 17.2 µM (inactive) in the assay on MOLT-4; 25.7 µM (inactive) in the assay on UACC-257; 4.51 µM (inactive) with OVCAR-3; 4.41 µM (inactive) in the assay with UACC-62; 8.83 µM (inactive) in the assay on HOP-62; 6.64 µM (inactive) with MDA-MB-435. The GI50 is > 100 µM (inactive) in the assay on OVCAR-5; 9.91 µM (inactive) in the assay on NCI-H23; 30.8 µM (inactive) in the assay on ACHN; 11 µM (inactive) in the assay with K562; 6.76 µM (inactive) with UO-31; 5.12 µM (inactive) in the assay on MDA-N. In addition, the GI50 with HOP-92 is 1.8 µM (inactive).
On to `CN(C)CCNC1=C(Cl)C(=O)c2c(O)ccc(O)c2C1=O`, for which the GI50 is 2.12 µM (inactive) with SF-295; 2.1 µM (inactive) in the assay with SK-MEL-2; 1.94 µM (inactive) in the assay with DU-145; 1.79 µM (inactive) in the assay on HCC 2998; 1.95 µM (inactive) in the assay on M14; 1.91 µM (inactive) with HCT-116. Moreover, the GI50 was 2.88 µM (inactive) in the assay on MOLT-4; 1.72 µM (inactive) in the assay on UACC-257; 1.98 µM (inactive) with OVCAR-3; 1.85 µM (inactive) with UACC-62; 1.95 µM (inactive) with HOP-62; 1.71 µM (inactive) in the assay on MDA-MB-435. Also, the GI50 is 1.74 µM (inactive) with OVCAR-5; 2.18 µM (inactive) in the assay on NCI-H23; 3.5 µM (inactive) in the assay on ACHN; 2.76 µM (inactive) with K562; 2.02 µM (inactive) in the assay with UO-31; 2.59 µM (inactive) in the assay with MDA-N. The GI50 in the assay on HOP-92 was 2.17 µM (inactive).
In the case of `COc1ccc(N2C(=O)C3c4[nH]c5ccc(OC)cc5c4C4CCC(c5ccccc5)CC4C3C2=O)cc1` (configuration not stated), the GI50 in the assay on SF-295 is 7.73 µM (inactive); with SK-MEL-2, 20.3 µM (inactive); in the assay on DU-145 it was 29.9 µM (inactive); in the assay with HCC 2998, 8.69 µM (inactive); in the assay on M14 it was 14.8 µM (inactive); with HCT-116, 1.11 µM (active). The GI50 is 4.32 µM (inactive) with MOLT-4; 17.3 µM (inactive) in the assay with UACC-257; 16.7 µM (inactive) in the assay with OVCAR-3; 15.1 µM (inactive) in the assay on UACC-62; 5.62 µM (inactive) in the assay with HOP-62; 16.4 µM (inactive) with MDA-MB-435. Further, the GI50 in the assay on OVCAR-5 is 20.6 µM (inactive); in the assay on NCI-H23, 17.5 µM (inactive); in the assay with ACHN it was 9.48 µM (inactive); with K562, 7.67 µM (inactive); in the assay with UO-31, 29.6 µM (inactive); in the assay on MDA-N, 18.4 µM (inactive). Besides, in the assay on HOP-92, the GI50 is 16.7 µM (inactive).
With `C=C(Cl)C(C)(Cl)CCC(Cl)C(C)C` (configuration not stated), the GI50 in the assay with SF-295 is > 100 µM (inactive); in the assay with SK-MEL-2, > 100 µM (inactive); in the assay on DU-145, > 100 µM (inactive); in the assay on HCC 2998, > 100 µM (inactive); in the assay on M14 it was 57.7 µM (inactive); with HCT-116, > 100 µM (inactive). Besides, the GI50 is 36.7 µM (inactive) in the assay on MOLT-4; > 100 µM (inactive) in the assay on UACC-257; > 100 µM (inactive) in the assay with OVCAR-3; > 100 µM (inactive) in the assay on UACC-62; > 100 µM (inactive) with HOP-62; > 100 µM (inactive) in the assay with MDA-MB-435. Besides, the GI50 in the assay on OVCAR-5 was > 100 µM (inactive); with NCI-H23, > 100 µM (inactive); in the assay on ACHN, > 100 µM (inactive); in the assay on K562 it was 51.5 µM (inactive); with UO-31, > 100 µM (inactive); with MDA-N it was 43.2 µM (inactive). Also, the GI50 with HOP-92 is 87.1 µM (inactive).
As to `CC(C)(C(=O)N(C(=O)N1CCN(c2ccccc2)CC1)S(=O)(=O)c1ccccc1)c1ccc(Cl)cc1`, the GI50 with SF-295 is 8.63 µM (inactive); in the assay on SK-MEL-2 it was 21.3 µM (inactive); in the assay on DU-145 it was 58.5 µM (inactive); in the assay on HCC 2998, 27.7 µM (inactive); in the assay with M14, 31.3 µM (inactive); with HCT-116, 17.7 µM (inactive). The GI50 was 3.33 µM (inactive) in the assay with MOLT-4; 46.7 µM (inactive) with UACC-257; 18.7 µM (inactive) in the assay on OVCAR-3; 40.6 µM (inactive) in the assay with UACC-62; 27.5 µM (inactive) in the assay with HOP-62; 51.2 µM (inactive) with MDA-MB-435. Besides, the GI50 in the assay on OVCAR-5 is 42.2 µM (inactive); in the assay with NCI-H23, 16.3 µM (inactive); in the assay on ACHN, 19.5 µM (inactive); in the assay on K562 it was 5.68 µM (inactive); in the assay on UO-31, 15.3 µM (inactive); in the assay on MDA-N, 41.5 µM (inactive). Moreover, the GI50 in the assay with HOP-92 was 5.43 µM (inactive).
Turning to `Nc1onc2c1Cc1c(noc1N)-c1ccccc1-2`, the GI50 in the assay with SF-295 was 65.2 µM (inactive); with SK-MEL-2, 61.2 µM (inactive); with DU-145, > 100 µM (inactive); in the assay on HCC 2998 it was > 100 µM (inactive); with M14 it was 84.3 µM (inactive); in the assay with HCT-116, 48.9 µM (inactive). Moreover, the GI50 with MOLT-4 was 74.8 µM (inactive); with UACC-257, 74.3 µM (inactive); with OVCAR-3, 53.7 µM (inactive); with UACC-62 it was 27.4 µM (inactive); in the assay with HOP-62 it was > 100 µM (inactive); in the assay on MDA-MB-435, 25.2 µM (inactive). Moreover, the GI50 was > 100 µM (inactive) with OVCAR-5; 53.6 µM (inactive) with NCI-H23; 35.4 µM (inactive) with ACHN; 41.3 µM (inactive) in the assay with K562; 53.6 µM (inactive) with UO-31; 48.9 µM (inactive) in the assay with MDA-N. For the same molecule, in the assay with HOP-92, the GI50 was 37.2 µM (inactive).
`COc1ccc2c(c1)-c1c(c3cc(OC)ccc3n1CCCN(C)C)CC2`: the GI50 with SF-295 was 2.62 µM (inactive); in the assay on SK-MEL-2 it was 15.8 µM (inactive); in the assay on DU-145, 16.2 µM (inactive); with HCC 2998 it was 3.13 µM (inactive); in the assay with M14, 2.03 µM (inactive); with HCT-116 it was 5.2 µM (inactive). In addition, the GI50 with MOLT-4 is 5.93 µM (inactive); in the assay on UACC-257, 3.48 µM (inactive); in the assay on OVCAR-3, 14.1 µM (inactive); in the assay with UACC-62, 6.98 µM (inactive); in the assay on HOP-62, 14.3 µM (inactive); in the assay on MDA-MB-435, 5.55 µM (inactive). Besides, the GI50 with OVCAR-5 was 13.8 µM (inactive); with NCI-H23, 16.8 µM (inactive); in the assay on ACHN it was 14.3 µM (inactive); with K562 it was 4.3 µM (inactive); in the assay with UO-31, 10.8 µM (inactive); in the assay with MDA-N, 4.79 µM (inactive). The GI50 with HOP-92 is 12.2 µM (inactive).
